Two compounds from ChEMBL document CHEMBL5046291, “Evodiamine-Inspired Topoisomerase-Histone Deacetylase Dual Inhibitors: Novel Orally Active Antitumor Agents for Leukemia Therapy” (J Med Chem, 2022) can be followed below.

pIC50: −log10 of the molar value. Activity calls are given as the source filed them. No cut-off for these calls is given here.

The target of data set [1] is T1, Histone deacetylase 2 (Homo sapiens, UniProt Q92769). The experiment in a line: Inhibition of recombinant full length C-terminal GST tagged human HDAC2 expressed in baculovirus infected Sf9 insect cells using Ac-Leu-Gly-Lys(Ac)-AMC as substrate preincubated for 5 mins followed by substrate addition and further incubated for 30 mins by fluorescence based microtiter plate reader assay.

Data set [2] deals with HEL. The experiment in a line: Induction of cell cycle arrest in HEL cells assessed as change in S-phase ratio at 0.1 uM incubated for 48 hrs by PI staining based flow cytometry relative to control. The data set is classed as functional, Homo sapiens. A general note: A flow cytometer gives signals particle by particle.
For data set [3], the system named is HEL. The experiment in a line: Induction of cell cycle arrest in HEL cells assessed as change in S-phase ratio at 0.5 uM incubated for 48 hrs by PI staining based flow cytometry relative to control. The data set is classed as functional, Homo sapiens.
Data set [4] in a line: Toxicity in BALB/C mouse xenografted with HEL cells assessed as change in body weight at 5 to 10 mg/kg, po qd for 14 days consecutively. Format: organism-based. Conditions: in vivo, 336 h, dose 5-10 mg/kg, time 14 day.
The test system of data set [5] is HEL. In words: Antitumor activity against HEL cells xenografted in BALB/C mouse assessed as T/C value at 5 mg/kg, po qd for 14 days consecutively by caliper method relative to control. The data set is classed as functional, Homo sapiens. The conditions noted are these: time 14 day.
The target in data set [6] is T1, Histone deacetylase 2. The experiment in a line: In vivo inhibition of HDAC2 in HEL cells xenografted in BALB/C mouse assessed as upregulation of acetyl-H4 levels at 5 to 10 mg/kg by immunohistochemical staining method. The data set is classed as functional, organism-based. The conditions noted are these: dose 5-10 mg/kg.
The target in data set [7] is T2, Protein deacetylase HDAC6 (Homo sapiens, UniProt Q9UBN7).
T2 sequence (Q9UBN7 whole entry): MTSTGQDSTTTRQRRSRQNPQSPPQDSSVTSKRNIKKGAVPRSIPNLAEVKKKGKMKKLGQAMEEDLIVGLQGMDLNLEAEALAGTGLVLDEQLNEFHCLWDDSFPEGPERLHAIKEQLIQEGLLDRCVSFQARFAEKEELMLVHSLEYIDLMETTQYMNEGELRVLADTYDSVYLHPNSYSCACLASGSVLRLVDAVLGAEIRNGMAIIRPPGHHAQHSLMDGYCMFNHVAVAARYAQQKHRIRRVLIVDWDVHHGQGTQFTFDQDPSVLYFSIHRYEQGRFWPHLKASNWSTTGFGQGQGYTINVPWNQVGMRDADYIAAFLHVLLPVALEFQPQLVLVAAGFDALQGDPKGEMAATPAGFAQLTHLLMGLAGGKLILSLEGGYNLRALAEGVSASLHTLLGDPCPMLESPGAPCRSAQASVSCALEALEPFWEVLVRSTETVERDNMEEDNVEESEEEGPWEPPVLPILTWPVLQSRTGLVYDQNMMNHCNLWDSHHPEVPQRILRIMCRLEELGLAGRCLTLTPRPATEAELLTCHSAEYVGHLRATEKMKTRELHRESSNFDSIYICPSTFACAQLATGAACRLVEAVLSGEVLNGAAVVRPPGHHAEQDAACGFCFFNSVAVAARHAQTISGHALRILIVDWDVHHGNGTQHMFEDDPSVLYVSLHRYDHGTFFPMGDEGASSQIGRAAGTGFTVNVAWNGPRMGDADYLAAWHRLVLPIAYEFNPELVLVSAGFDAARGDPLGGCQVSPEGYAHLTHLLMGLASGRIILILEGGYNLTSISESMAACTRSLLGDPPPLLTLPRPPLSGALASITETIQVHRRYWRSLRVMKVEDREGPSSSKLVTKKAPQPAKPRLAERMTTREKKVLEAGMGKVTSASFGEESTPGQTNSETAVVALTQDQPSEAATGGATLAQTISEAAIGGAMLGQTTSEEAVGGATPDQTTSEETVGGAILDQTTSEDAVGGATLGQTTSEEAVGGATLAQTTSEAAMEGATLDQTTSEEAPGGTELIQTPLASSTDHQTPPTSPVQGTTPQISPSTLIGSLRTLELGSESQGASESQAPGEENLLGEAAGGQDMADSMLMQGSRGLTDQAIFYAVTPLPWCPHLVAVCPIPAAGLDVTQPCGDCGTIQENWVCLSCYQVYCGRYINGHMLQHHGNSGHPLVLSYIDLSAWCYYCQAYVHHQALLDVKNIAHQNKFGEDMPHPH
The experiment in a line: Inhibition of full-length recombinant N-terminal GST-tagged human HDAC6 expressed in baculovirus infected Sf9 cells using Ac-Leu-Gly-Lys(Ac)-AMC as substrate preincubated for 5 mins followed by substrate addition and further incubated for 30 mins by fluorescence based microtiter plate reader assay.

The subject of data set [8] is HEL. In words: Induction of apoptosis in HEL cells assessed as apoptotic cells at 0.1 uM incubated for 48 hrs by annexin V-FITC/PI staining based flow cytometry (reference value: 3.95%). Format: functional, Homo sapiens.
The target in data set [9] is T3, Histone deacetylase 1 (Homo sapiens, UniProt Q13547). The experiment in a line: Inhibition of full-length recombinant human HDAC1 expressed in Baculovirus expression system using Ac-Leu-Gly-Lys(Ac)-AMC as substrate preincubated for 5 mins followed by substrate addition and further incubated for 30 mins by fluorescence based microtiter plate reader assay.
The next data set deals with MCF7. The experiment in a line: Antiproliferative activity against human MCF7 cells assessed as cell growth inhibition incubated for 8 hrs by CCK8 assay. Format: functional, cell-based. The conditions noted are these: MCF7, 8 h. (Tetrazolium assays rely on reduction of a dye to a coloured formazan, in cell work by metabolically active cells.)
Data set [10] deals with HEL. In words: Antitumor activity against HEL cells xenografted in BALB/C mouse assessed as tumor growth inhibition at 10 mg/kg, po qd for 14 days consecutively by caliper method relative to control. Format: functional, Homo sapiens. The conditions noted are these: 336 h, time 14 day, read-out: TGI.
Data set [11] deals with DNA topoisomerase 2-alpha (Homo sapiens) (UniProt P11388). In words: Inhibition of recombinant Top2 (unknown origin) assessed as inhibition of relaxation of supercoiled pBR322 plasmid DNA at 100 uM incubated for 15 mins by ethidium bromide staining based agarose gel electrophoresis analysis.
Data set [12] has as its target T3, Histone deacetylase 1. In words: In vivo inhibition of HDAC1 in HEL cells xenografted in BALB/C mouse assessed as upregulation of acetyl-H3 levels at 5 to 10 mg/kg by immunohistochemical staining method. Format: functional, organism-based. Conditions: dose 5-10 mg/kg.
The next data set has as its system A549. The experiment in a line: Antiproliferative activity against human A549 cells assessed as cell growth inhibition incubated for 8 hrs by CCK8 assay. Format: functional, cell-based. Conditions: A549, 8 h.
The test system of data set [13] is HEL. The experiment in a line: Antiproliferative activity against HEL cells assessed as cell growth inhibition incubated for 8 hrs by CCK8 assay. The conditions noted are these: Homo sapiens. Format: functional, cell-based.
Data set [14] concerns HEL. In words: Induction of apoptosis in HEL cells assessed as apoptotic cells at 0.5 uM incubated for 48 hrs by annexin V-FITC/PI staining based flow cytometry (reference value: 4.23%). The data set is classed as functional, Homo sapiens.
For data set [15], the system named is HEL. The experiment in a line: Induction of cell cycle arrest in HEL cells assessed as change in S-phase ratio at 0.02 uM incubated for 48 hrs by PI staining based flow cytometry relative to control. Format: functional, Homo sapiens.
The subject of data set [16] is HEL. The experiment in a line: Antitumor activity against HEL cells xenografted in BALB/C mouse assessed as T/C value at 10 mg/kg, po qd for 14 days consecutively by caliper method relative to control. Format: functional, Homo sapiens. Conditions: time 14 day.
The nature of data set [17]: Metabolic stability in ICR mouse liver microsome assessed as half life. The data set is classed as ADME. Conditions: liver microsomes. A general note: Liver microsomes are a subcellular fraction often used to study metabolism.
Data set [18] can be described thus: Metabolic stability in ICR mouse liver microsome assessed as clearance. Format: ADME. Conditions: microsomes.
The test system of data set [19] is HEL. The experiment in a line: Antitumor activity against HEL cells xenografted in BALB/C mouse assessed as tumor growth inhibition at 5 mg/kg, po qd for 14 days consecutively by caliper method relative to control. Format: functional, Homo sapiens. Conditions: 336 h, time 14 day, read-out: TGI.

T3 sequence (Q13547 whole entry): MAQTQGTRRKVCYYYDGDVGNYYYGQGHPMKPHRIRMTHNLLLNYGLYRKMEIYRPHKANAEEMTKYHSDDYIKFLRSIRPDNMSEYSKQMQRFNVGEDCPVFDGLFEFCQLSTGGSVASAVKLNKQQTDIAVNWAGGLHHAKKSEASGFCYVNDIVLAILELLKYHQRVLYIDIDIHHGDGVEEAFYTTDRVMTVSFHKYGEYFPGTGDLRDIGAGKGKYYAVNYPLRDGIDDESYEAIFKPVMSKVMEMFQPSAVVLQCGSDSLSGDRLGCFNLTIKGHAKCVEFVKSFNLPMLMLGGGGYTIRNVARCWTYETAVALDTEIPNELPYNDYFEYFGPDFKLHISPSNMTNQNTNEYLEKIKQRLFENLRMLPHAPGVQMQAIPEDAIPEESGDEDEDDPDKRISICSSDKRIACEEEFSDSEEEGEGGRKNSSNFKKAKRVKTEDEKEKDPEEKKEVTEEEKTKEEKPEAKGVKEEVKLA
T1 sequence (Q92769 whole entry): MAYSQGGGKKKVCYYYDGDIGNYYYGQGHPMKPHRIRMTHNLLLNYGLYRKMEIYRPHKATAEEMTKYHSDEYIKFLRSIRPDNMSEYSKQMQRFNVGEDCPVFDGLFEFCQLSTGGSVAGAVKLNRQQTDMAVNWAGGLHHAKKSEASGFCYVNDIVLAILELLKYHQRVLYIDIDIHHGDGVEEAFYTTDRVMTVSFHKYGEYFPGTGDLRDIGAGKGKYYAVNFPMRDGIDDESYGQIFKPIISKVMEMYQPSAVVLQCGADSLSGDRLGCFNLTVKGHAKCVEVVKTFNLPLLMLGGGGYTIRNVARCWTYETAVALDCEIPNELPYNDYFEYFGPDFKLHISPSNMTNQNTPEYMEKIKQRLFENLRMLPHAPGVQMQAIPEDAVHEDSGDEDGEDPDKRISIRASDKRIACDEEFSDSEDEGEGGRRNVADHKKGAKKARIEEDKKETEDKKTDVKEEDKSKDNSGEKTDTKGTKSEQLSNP
Chain of DNA topoisomerase 2-alpha (Homo sapiens) (P11388 whole entry): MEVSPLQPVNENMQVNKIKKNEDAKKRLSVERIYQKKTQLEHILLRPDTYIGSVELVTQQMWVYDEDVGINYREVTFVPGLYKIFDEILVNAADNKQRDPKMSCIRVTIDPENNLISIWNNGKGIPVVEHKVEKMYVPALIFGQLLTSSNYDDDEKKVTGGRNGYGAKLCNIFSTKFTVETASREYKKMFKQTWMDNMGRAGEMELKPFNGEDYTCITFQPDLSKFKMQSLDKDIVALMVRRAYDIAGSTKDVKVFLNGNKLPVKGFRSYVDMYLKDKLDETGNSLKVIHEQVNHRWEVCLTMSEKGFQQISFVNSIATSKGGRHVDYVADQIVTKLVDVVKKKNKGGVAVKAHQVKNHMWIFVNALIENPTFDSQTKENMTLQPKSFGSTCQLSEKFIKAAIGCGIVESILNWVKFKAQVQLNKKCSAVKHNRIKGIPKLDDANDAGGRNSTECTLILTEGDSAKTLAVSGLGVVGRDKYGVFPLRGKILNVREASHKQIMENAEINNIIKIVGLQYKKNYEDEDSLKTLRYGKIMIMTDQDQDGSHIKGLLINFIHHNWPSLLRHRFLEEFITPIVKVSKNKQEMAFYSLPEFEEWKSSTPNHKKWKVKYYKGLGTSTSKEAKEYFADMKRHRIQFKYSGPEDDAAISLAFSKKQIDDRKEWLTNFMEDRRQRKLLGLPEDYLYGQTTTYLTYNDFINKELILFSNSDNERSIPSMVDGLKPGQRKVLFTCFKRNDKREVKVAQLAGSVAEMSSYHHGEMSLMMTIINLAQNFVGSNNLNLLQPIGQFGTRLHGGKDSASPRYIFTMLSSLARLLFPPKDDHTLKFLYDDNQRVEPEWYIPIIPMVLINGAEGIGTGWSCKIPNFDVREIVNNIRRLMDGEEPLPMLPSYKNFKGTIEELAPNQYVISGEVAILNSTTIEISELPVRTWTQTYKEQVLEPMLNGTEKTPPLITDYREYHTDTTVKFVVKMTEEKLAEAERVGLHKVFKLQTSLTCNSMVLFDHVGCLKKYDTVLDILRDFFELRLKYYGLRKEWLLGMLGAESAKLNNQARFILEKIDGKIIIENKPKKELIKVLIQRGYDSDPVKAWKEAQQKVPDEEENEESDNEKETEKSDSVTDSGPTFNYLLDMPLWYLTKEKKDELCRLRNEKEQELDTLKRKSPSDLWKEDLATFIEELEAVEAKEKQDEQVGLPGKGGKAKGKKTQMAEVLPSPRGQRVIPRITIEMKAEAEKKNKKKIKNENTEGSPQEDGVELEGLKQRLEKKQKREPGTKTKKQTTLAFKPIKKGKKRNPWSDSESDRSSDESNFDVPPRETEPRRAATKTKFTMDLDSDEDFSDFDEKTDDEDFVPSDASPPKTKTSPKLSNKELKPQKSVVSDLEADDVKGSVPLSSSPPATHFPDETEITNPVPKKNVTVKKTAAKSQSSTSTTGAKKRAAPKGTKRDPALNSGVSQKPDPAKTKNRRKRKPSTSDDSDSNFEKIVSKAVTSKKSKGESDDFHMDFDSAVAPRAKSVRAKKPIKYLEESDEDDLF

As a reminder, the pIC50 is the IC50 on a negative log10 scale, so that one unit is a factor of ten. Broadly, the T/C is the result in the treated group divided by that in the control group, in per cent. One may read the half-life as how long it takes for the measured level to halve. On to `CN1c2ccc(F)cc2C(=O)N2CCc3c([nH]c4ccc(OCc5ccc(/C=C/C(=O)NO)cc5)cc34)C21` (stereo not drawn), for which the pIC50 at Histone deacetylase 2 [1] was 6.85; in data set [7], 7.05; on Histone deacetylase 1 [9] it was 7.44; with MCF7, less than 5.70; with A549 it was 6.17; in the data set with HEL [13], 7.54. For the same compound, the Activity in the data set on HEL [2] is given as 15.4%; with HEL [3], 25.8%; in data set [4], “Non-Toxic”; with HEL [8] it was 56.02%; with HEL [14], 76.45%; with HEL [15], 9.8%. The T/C with HEL [5] turned out to be 54.3%; with HEL [16], 25.5%. Further, the inhibition result (at Histone deacetylase 2 [6]; in [11]; at Histone deacetylase 1 [12]) was “Active” throughout. Further, the inhibition in vivo at 10 mg/kg with HEL [10] was 68.5%. The half-life in [17] was 31.5 min. Moreover, the CLH in [18] worked out at 173 mL/min/kg. The inhibition in vivo at 5 mg/kg in the data set on HEL [19] was found to be 41.4%.
For `CN1c2ccc(F)cc2C(=O)N2CCc3c([nH]c4ccc(OCc5ccc(/C=C/C(=O)Nc6ccccc6N)cc5)cc34)C21` (stereo not drawn), the negative-log IC50 (pIC50) on Histone deacetylase 2 [1] is 4.38; in [7] it was 4.96; at Histone deacetylase 1 [9] it was 6.49; in the data set with MCF7 it was less than 5.70; with A549 it was 6.03; in the data set on HEL [13], 6.62. Besides, the inhibition entry in [11] is “Active”.
